Experimental data: patent US8492088B2, “Engineering enzymes through genetic selection” (priority 2007, dated 2013)
Where two headings read alike, the source gives them in different places.

What was measured:
[1] = molecular target: T1, RXR variant Q275C;I310M;F313I (Homo sapiens, UniProt P19793, F313I/I310M/Q275C); conditions: in yeast; previous best LG335 receptor Q275C;I310M;F313I; cited from earlier work
T1 construct: expressed in transfected cells; host or cells: yeast

wtRXR = wtRXR (Homo sapiens, UniProt P19793); experiment: cell-based
Excerpt: (§1) RLU=relative light units.
(§2) Mammalian Luciferase Assay: Performed with HEK 293 cells as previously described, and known in the art.
(§3) Five variants were chosen for testing in mammalian cell culture for comparison of the activation profiles (I268A;I310A;F313A;L436F,I268V;A272V;I310L;F313M, I268A;I310S;F313A;L436F, I268V;A272V;I310M;F313S;L436M, and I286A;I310M;F313A;L436T). The genes for these variants were removed from yeast expression plasmids and ligated into mammalian expression plasmids.

[2] = molecular target: RXR variant I268V; A272V; I310L; F313M (Homo sapiens, UniProt P19793, A272V/F313M/I268V/I310L)
Excerpt: as §1, §2, §3
Target sequence in this assay (P19793 whole entry I268V/A272V/I310L/F313M): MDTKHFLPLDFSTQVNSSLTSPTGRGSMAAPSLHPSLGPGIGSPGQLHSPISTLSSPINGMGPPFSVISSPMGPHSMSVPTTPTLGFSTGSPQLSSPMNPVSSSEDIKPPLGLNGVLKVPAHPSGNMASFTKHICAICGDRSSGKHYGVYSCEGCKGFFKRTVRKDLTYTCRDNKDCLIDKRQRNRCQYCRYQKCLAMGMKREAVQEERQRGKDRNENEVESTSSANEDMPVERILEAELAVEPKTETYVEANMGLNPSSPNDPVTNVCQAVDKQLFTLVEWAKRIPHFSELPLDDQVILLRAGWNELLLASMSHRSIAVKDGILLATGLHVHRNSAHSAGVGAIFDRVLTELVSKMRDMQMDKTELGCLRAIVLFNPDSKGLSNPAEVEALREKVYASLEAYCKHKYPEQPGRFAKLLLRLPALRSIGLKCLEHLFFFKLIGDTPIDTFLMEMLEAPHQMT

[3] = molecular target: RXR variant I268A; I310A; F313A; L436F (Homo sapiens, UniProt P19793, F313A/I268A/I310A/L436F)
Excerpt: as §1, §2, §3

[4] = molecular target: RXR variant I268A; I310M; F313A; L436T (Homo sapiens, UniProt P19793, F313A/I268A/I310M/L436T)
Excerpt: as §1, §2, §3
Target sequence in this assay (P19793 whole entry I268A/I310M/F313A/L436T): as the sequence (P19793 whole entry I268V/A272V/I310L/F313M) above, with V268A, V272A, L310M, M313A, L436T counted along it

[5] = molecular target: RXR variant I268V; A272V; I310M; F313S; L436M (Homo sapiens, UniProt P19793, A272V/F313S/I268V/I310M/L436M)
Excerpt: as §1, §2, §3
Target sequence in this assay (P19793 whole entry I268V/A272V/I310M/F313S/L436M): as the sequence (P19793 whole entry I268V/A272V/I310L/F313M) above, with L310M, M313S, L436M counted along it

[6] = molecular target: T2, RXR variant I268A; I310S; F313V; L436F (Homo sapiens, UniProt P19793, F313V/I268A/I310S/L436F); assay type: cell-based; conditions: Yeast, L436F (first line, r10)
T2 construct: express the Gal4 DBD fused with a variant RXR LBD (GBD:RXR); expressed in transfected cells; host or cells: Saccharomyces cerevisiae PJ69-4A
Excerpt: (§4) Liquid Media: The method used for quantitation was modified from a method developed by Miller and known in the art.
(§5) The twelve plasmids rescued from the selective plates were retransformed into PJ69-4A to confirm that their phenotype is plasmid linked. The strain PJ69-4A was engineered to contain a Gal4 response element controlling expression of the LacZ gene, in addition to the ADE2 gene. […] The selection assay quantifies yeast growth occurring through transcriptional activation of the ADE2 gene, while the screen quantifies β-galactosidase activity occurring though transcriptional activation of the LacZ gene.

[7] = molecular target: T3, RXR variant I268A; I310S; F313V; L436F (Homo sapiens, UniProt P19793, F313V/I268A/I310S/L436F); experiment: cell-based; design: species or system yeast
T3 sequence (P19793 225-462 I268A/I310S/F313V/L436F): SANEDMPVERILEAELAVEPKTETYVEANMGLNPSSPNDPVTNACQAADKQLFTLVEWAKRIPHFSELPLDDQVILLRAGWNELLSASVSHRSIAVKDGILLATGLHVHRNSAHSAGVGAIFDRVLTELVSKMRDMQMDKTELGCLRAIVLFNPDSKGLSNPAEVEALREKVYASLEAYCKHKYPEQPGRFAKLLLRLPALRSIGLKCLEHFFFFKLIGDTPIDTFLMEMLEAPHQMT
Excerpt: as §4, §5

[8] = molecular target: RXR variant I268A; I310A; F313A; L436F (Homo sapiens, UniProt P19793, F313A/I268A/I310A/L436F); conditions: Yeast, relative to wild type with 10 μM 9cRA
Excerpt: as §4, §5

[9] = molecular target: RXR variant I268V; A272V; I310M; F313S; L436M (Homo sapiens, UniProt P19793, A272V/F313S/I268V/I310M/L436M); conditions: Yeast
Excerpt: as §4, §5

[10] = molecular target: T4, RXR variant I268V; A272V; I310L; F313M (Homo sapiens, UniProt P19793, A272V/F313M/I268V/I310L); remark: listed apart in the source
T4 sequence (P19793 227-462 I268V/A272V/I310L/F313M): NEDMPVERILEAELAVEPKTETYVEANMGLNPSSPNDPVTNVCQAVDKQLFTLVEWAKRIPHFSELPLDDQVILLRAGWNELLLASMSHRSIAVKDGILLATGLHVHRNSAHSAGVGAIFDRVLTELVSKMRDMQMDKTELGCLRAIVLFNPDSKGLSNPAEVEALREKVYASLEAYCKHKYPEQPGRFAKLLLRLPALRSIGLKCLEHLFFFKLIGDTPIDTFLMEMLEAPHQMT
Excerpt: as §4, §5

[11] = molecular target: RXR variant I268V; A271V; I310L; F313V (Homo sapiens, UniProt P19793, A271V/F313V/I268V/I310L); conditions: Yeast
Excerpt: as §4, §5

[12] = molecular target: RXR variant I268A; I310M; F313A; L436T (Homo sapiens, UniProt P19793, F313A/I268A/I310M/L436T); conditions: Yeast
Excerpt: as §4, §5

[13] = molecular target: RXR variant I268L; A271V; I310L; F313L (Homo sapiens, UniProt P19793, A271V/F313L/I268L/I310L); conditions: Yeast
Excerpt: as §4, §5

[14] = molecular target: RXR variant I268V; I310V; F313S (Homo sapiens, UniProt P19793, F313S/I268V/I310V); conditions: Yeast
Excerpt: as §4, §5

[15] = molecular target: RXR variant I268L; I310M; F313V (Homo sapiens, UniProt P19793, F313V/I268L/I310M)
Excerpt: as §4, §5

[16] = molecular target: RXR variant I268L; I310V; F313I (Homo sapiens, UniProt P19793, F313I/I268L/I310V); conditions: Yeast
Excerpt: as §4, §5

[17] = molecular target: RXR variant I268A; A272V; I310A; F313A; L436F (Homo sapiens, UniProt P19793, A272V/F313A/I268A/I310A/L436F); conditions: Yeast
Excerpt: as §4, §5
Target sequence in this assay (P19793 227-458 I268A/A272V/I310A/F313A/L436F limits assumed): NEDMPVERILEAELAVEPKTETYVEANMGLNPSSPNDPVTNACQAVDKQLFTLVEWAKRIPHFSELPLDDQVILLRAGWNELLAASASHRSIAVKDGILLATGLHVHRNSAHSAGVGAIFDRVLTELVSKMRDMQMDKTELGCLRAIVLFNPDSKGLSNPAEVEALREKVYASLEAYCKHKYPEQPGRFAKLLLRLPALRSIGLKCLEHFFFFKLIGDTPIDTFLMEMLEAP
Target sequence in this assay (Q9Y6Q9 1-1413 partner limits assumed): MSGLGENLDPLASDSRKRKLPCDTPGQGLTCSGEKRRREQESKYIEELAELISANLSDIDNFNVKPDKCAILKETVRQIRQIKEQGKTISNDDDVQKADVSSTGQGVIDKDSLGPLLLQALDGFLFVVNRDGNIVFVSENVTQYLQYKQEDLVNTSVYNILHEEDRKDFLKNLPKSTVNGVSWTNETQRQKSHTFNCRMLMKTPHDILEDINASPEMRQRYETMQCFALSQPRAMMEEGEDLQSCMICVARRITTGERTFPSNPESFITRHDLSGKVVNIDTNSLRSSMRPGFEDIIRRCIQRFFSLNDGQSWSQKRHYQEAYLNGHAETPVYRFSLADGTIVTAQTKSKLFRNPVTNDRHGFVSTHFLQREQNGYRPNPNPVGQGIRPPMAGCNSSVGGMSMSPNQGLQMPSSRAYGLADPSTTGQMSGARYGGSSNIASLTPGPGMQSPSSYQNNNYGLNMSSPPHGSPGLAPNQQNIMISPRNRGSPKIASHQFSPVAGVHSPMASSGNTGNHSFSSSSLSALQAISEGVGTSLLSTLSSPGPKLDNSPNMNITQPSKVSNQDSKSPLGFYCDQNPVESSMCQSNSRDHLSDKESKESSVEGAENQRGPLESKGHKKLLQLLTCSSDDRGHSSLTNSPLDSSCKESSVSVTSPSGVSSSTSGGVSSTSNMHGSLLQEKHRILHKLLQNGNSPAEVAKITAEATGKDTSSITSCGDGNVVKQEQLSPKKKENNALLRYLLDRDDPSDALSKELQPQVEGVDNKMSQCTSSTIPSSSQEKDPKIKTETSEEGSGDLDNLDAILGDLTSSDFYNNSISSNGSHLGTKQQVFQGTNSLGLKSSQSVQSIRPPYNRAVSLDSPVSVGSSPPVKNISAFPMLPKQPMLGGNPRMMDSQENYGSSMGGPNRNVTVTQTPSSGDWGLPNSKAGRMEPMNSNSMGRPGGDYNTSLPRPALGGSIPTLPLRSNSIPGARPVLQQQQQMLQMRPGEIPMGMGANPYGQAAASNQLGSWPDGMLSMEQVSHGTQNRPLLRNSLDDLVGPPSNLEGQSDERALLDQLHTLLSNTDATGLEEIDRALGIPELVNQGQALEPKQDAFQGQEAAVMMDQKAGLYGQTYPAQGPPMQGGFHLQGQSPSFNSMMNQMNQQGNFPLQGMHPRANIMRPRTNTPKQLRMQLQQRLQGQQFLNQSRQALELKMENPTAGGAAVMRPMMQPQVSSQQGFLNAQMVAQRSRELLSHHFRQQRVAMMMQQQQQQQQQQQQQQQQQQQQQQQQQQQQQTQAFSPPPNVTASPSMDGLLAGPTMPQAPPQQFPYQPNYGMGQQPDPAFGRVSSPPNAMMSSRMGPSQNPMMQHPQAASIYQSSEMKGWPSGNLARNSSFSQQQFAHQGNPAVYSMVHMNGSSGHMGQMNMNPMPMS

wild-type RXR (GBD:RXR) = wild-type RXR (GBD:RXR) (Homo sapiens, UniProt P19793); experiment: cell-based
Excerpt: as §4, §5
Three plasmids were used as controls in the screen and selection assays. […] This plasmid provides a measure of background noise in both the selection and screen assays.

[18] = molecular target: T3, RXR variant I268A; I310S; F313V; L436F; experiment: cell-based
[19] = molecular target: T5, RXR variant I268L; A271V; I310L; F313L (Homo sapiens, UniProt P19793, A271V/F313L/I268L/I310L); experiment: Mammalian luciferase assay in HEK 293 cells; assay type: cell-based
T5 construct: expressed in transfected cells; host or cells: HEK 293
Excerpt: as §1, §2

[20] = molecular target: T6, RXR variant I268A; A272V; I310A; F313A; L436F (Homo sapiens, UniProt P19793, A272V/F313A/I268A/I310A/L436F); experiment: Mammalian luciferase assay in HEK 293 cells; assay type: cell-based
T6 construct: expressed in transfected cells; host or cells: HEK 293
Excerpt: as §1, §2

[21] = in vivo; cited from earlier work
[22] = test system: Gram negative and Gram-positive bacteria; conditions: series of Gram negative and Gram-positive bacteria; cited from earlier work
Heliothis virescens = conditions: against Heliothis virescens; cited from earlier work
Candida albicans = conditions: against Candida albicans; cited from earlier work
[23] = HEK 293, relative to wild type with 10 μM 9cRA
[24] = relative to wild type with 10 μM 9cRA

RXR variant I268L; I310M; F313V, sequence (P19793 227-458 I268L/I310M/F313V limits assumed): as the sequence (P19793 227-458 I268A/A272V/I310A/F313A/L436F limits assumed) above, with A42L, V46A, A84M, A87V, F210L counted along it
RXR variant I268L; I310M; F313V, sequence (Q9Y6Q9 1-1413 partner limits assumed): as the sequence (Q9Y6Q9 1-1413 partner limits assumed) above
RXR variant I268V; I310V; F313S, sequence (P19793 227-458 I268V/I310V/F313S limits assumed): as the sequence (P19793 227-458 I268A/A272V/I310A/F313A/L436F limits assumed) above, with A42V, V46A, A84V, A87S, F210L counted along it

## CCCc1cc2c(cc1C(=O)c1ccc(C(=O)O)cc1)C(C)(C)CCC2(C)C [LG335, 4-[(3-Propyl-5,5,8,8-tetramethyl-5,6,7,8-tetrahydro-2-naphtyl)carbonyl]benzoic Acid]
[1]
  EC50: 1000 nM
wtRXR
  EC50: 300 nM
wtRXR; HEK 293, WT, relative to wild type with 10 μM 9cRA
  Eff (efficacy): 10%
[2]; HEK 293
  EC50: 1 nM
[2]; [23]
  Eff (efficacy): 30%
[3]; HEK 293
  EC50: 30 nM
[3]; [23]
  Eff (efficacy): 50%
[4]; HEK 293
  EC50: 140 nM
[4]; [23]
  Eff (efficacy): 20%
[5]; HEK 293
  EC50: 180 nM
[5]; [23]
  Eff (efficacy): 30%
[6]
  EC50: 470 nM
[6]; [24]
  Eff (efficacy): 60%
[7]; Yeast, I268A, I310S, F313V, L436F (second line, r11)
  EC50: 430 nM
[7]; read-out: Eff (efficacy)
  Emax: 50%
[8]
  Eff (efficacy): 70%
[9]
  EC50: 680 nM
[9]; [24]
  Eff (efficacy): 30%
[10]; Yeast, I268V, A272V, I310L, F313M, relative to wild type with 10 μM 9cRA
  Eff (efficacy): 60%
[10]; in yeast, I268V;A272V;I310L;F313M
  EC50: 40 nM
[10]; in yeast, LG335-I268V;A272V;I310L;F313M ligand receptor pair
  improvement in EC50 over the previous best LG335 receptor, Q275C;I310M;F313I: 25 fold
[11]
  EC50: 650 nM
[11]; [24]
  Eff (efficacy): 10%
[12]
  EC50: 610 nM
[12]; [24]
  Eff (efficacy): 10%
[13]
  EC50: 530 nM
[13]; [24]
  Eff (efficacy): 20%
[14]
  EC50: 440 nM
[14]; [24]
  Eff (efficacy): 10%
[15]; I268L;I310M;F313V, high basal activity
  activity in the screen assay: increase activity at micromolar concentrations
[15]; Yeast, I268L, I310M, F313V
  EC50: 610 nM
[15]; Yeast, I268L, I310M, F313V, relative to wild type with 10 μM 9cRA
  Eff (efficacy): 20%
[16]
  EC50: >2000 nM
[16]; [24]
  Eff (efficacy): 10%
[17]
  EC50: 530 nM
[17]; [24]
  Eff (efficacy): 30%
wild-type RXR (GBD:RXR)
  EC50: > 10000 nM
wild-type RXR (GBD:RXR); Yeast, WT, maximum increase in activation relative to wild type with 10 μM 9cRA
  Eff (efficacy): 10%
[18]; HEK293, read-out: Eff (efficacy)
  Emax: 20%
[18]; HEK 293, I268A, I310S, F313V, L436F (second line, r11)
  EC50: 690 nM
[19]
  EC50: 1 nM
[20]
  EC50: 1 nM

## CO/C(=C/C(=O)N(C)C(Cc1ccccc1)c1nccs1)CC(C)C(Cl)(Cl)Cl (stereo not shown) [Barbamide]
[21]
  molluscicidal activity: potent mollucuscidal activity

## C/C1=C\[C@H](C)C[C@H](C)OC(=O)C[C@H](c2ccc(O)cc2)NC(=O)[C@@H](Cc2c(Br)[nH]c3ccccc23)N(C)C(=O)[C@H](C)NC(=O)[C@@H](C)C1 [Jaspamide]
[22]
  activity against bacteria: completely inactive
Heliothis virescens
  insecticidal activity: insecticidal
Candida albicans
  fungicidal activity: fungicidal activity
